Read-outs that look alike come from different tables or passages of the source.

This experiment deals with bioluminescent sensor strain Escherichia coli MT102 (pSB403). Put plainly: Biosensor assay: quorum sensing inhibition, bioluminescence of the sensor strain. It counts as cell-based. The conditions noted are these: 3oxo-C6-HSL 100 nM, bioluminescence after 4 hours at 30° C. Here is the method:
Quorum sensing inhibition of the compounds was investigated with the aid of the bioluminescent sensor strain Escherichia coli MT102 (pSB403) (Winson et al., FEMS Microbiol. Lett. 163:185-92, 1998). Plasmid pSB403 contains the Photobacterium fischeri luxR gene together with the […] promoter region as a transcriptional fusion to the bioluminescence genes luxCDABE of Photorhabdus luminescence.
Inhibitory studies were conducted in a microtitre dish assay as follows: the E. coli sensor strain grown over night in LB medium (Sambrook et al., Molecular Cloning: A Laboratory Manual. 2nd Edn. Cold Spring Harbor Laboratory, New York, 1989) was diluted 1:4 and grown for another 1 hour at 30° C. After addition of 3oxo-C6-HSL (final concentration 100 nM) 100 μl of an exponential culture suspension were filled in the wells of a FluoroNunc Polysorp microtitre dish. The test compounds were added to the culture in different concentrations and bioluminescence was measured after 4 hours of incubation at 30° C. with a Lamda Fluoro 320 Plus reader (Bio-Tek Instruments). Inhibitor-mediated reduction of light emission was correlated with the value obtained without addition of the test compounds. IC50 values (concentration of inhibitor required for 50% inhibition of the signal compared to the signal without inhibitor) were determined by using a fitting function after drawing a graph of the activities of eight different inhibitor concentrations.

One may read the IC50 as the concentration at which inhibition is half-maximal. Molecule `CCCCCCC(=O)CC(=O)Nc1oc(C)nc1C#N` [Compound 135, 3-Oxo-nonanoic acid (4cyano-2-methyl-oxazol-5-yl)-amide] registered an IC50 (Escherichia coli, 4 h) of 50 to 100 µM.

`CCOC(=O)CC(=O)NNC(=O)c1cc2ccccc2s1` [Compound 96, 3-[N′-(Benzo[b]thiophene-2-carbonyl)-hydrazino]-3-oxo-propionic acid ethyl ester] yielded an IC50 (Escherichia coli, 4 h) of 50 to 100 µM. The same measure, in the same setting: as for `O=C(NNC(=O)c1cccs1)c1cccs1` [Compound 46, Thiophene-2-carboxylic acid N′-(thiophene-2-carbonyl)-hydrazide], the figure is 50 to 100 µM; as for `CCCCCNC(=O)NNC(=O)c1cc(Br)c(Br)s1` [Compound 101, 1-(4,5-Dibromo-thiophene-2-carbonyl)-4-pentyl-semicarbazide], above 100 µM; as for `CCn1nc(C)c(Br)c1C(=O)NNC(=O)c1scc(C)c1Cl` [Compound 72, 4-Bromo-2-ethyl-5-methyl-2H-pyrazole-3-carboxylic acid N′-(3-chloro-4-methylthiophene-2-carbonyl)-hydrazide], above 100 µM. In turn, `Cc1cc(C(=O)NNC(=O)c2sc3ccccc3c2Cl)n(C)n1` [Compound 64, 2,5-Dimethyl-2H-pyrazole-3-carboxylic acid N′-(3-chloro-benzo[b]thiophene-2-carbonyl)-hydrazide] registered an IC50 (Escherichia coli, 4 h) above 100 µM. The same measure, in the same setting: the result for `CCOc1ccsc1C(=O)NNC(=O)c1sccc1Br` [Compound 56, 3-Bromo-thiophene-2-carboxylic acid N′-(3-ethoxy-thiophene-2-carbonyl)-hydrazide] reads 1 to 50 µM; that for `O=C(NNC(=O)c1cc(Br)c(Br)s1)Nc1cccc(C(F)(F)F)c1` [Compound 104, 1-(4,5-Dibromo-thiophene-2-carbonyl)-4-(3-trifluoromethyl-phenyl)-semi-carbazide], 1 to 50 µM. Same read-out and setting: as for `Cc1ccc(C(=O)NNC(=O)CCC2CCCC2)s1` [Compound 87, 5-Methyl-thiophene-2-carboxylic acid N′-(3-cyclopentyl-propionyl)-hydrazide], the figure is 1 to 50 µM; as for `CCCCCCC(=O)NNS(=O)(=O)c1ccc(Cl)s1` [Compound 99, N′-(5-Chloro-thiophen-2-sulfonyl)-heptanoic acid hydrazide], above 100 µM; as for `CCCCCCCCCC(=O)CC(=O)Nc1scc(C)c1C(=O)OCC` [Compound 124, 4-Methyl-2-(3-oxo-dodecanoylamino)-thiophene-3-carboxylic acid ethyl ester], above 100 µM.

Regarding `CCCCCCCCCC(=O)CC(=O)Nc1cc(C)ns1` [Compound 126, 3-Oxo-dodecanoic acid (3-methyl-isothiazol-5-yl)-amide], the IC50 (Escherichia coli, 4 h) was above 100 µM.

In turn, `Cn1ncc(Br)c1NC(=O)CCCCCBr` [Compound 23, 6-Bromo-hexanoic acid (4-bromo-2-methyl-2H-pyrazol-3-yl)-amide] gave an IC50 (Escherichia coli, 4 h) of 1 to 50 µM. For `COC(=O)CCCC(=O)NNC(=O)c1ccc(C)s1` [Compound 88], the IC50 (Escherichia coli, 4 h) is above 100 µM.

In turn, `Cn1nc(C(C)(C)C)cc1C(=O)NNC(=O)c1ccc(Cl)s1` [Compound 69, 5-tert-Butyl-2-methyl-2H-pyrazole-3-carboxylic acid N′-(5-chloro-thiophene-2-carbonyl)-hydrazide] came in with an IC50 (Escherichia coli, 4 h) of 1 to 50 µM. On the same count and under the same terms, as for `CCCCCCC(=O)CC(=O)Nc1ccn[nH]1` [Compound 113, 3-Oxo-nonanoic acid (2H-pyrazol-3-yl)-amide], the figure is above 100 µM; as for `CCCCCCC(=O)CC(=O)Nc1sccc1C(=O)OC` [Compound 121, 2-(3-Oxo-nonanoylamino)-thiophene-3-carboxylic acid methyl ester], above 100 µM. The same measure, in the same setting: as for `Cc1nn(C)c2ncc(C(=O)NNC(=O)c3cccs3)c(Cl)c12` [Compound 63], the figure is above 100 µM. For the setting “Escherichia coli, 4 h”, `O=C(NNC(=O)c1cccs1)c1cccc(Cl)c1` [Compound 31, 3-Chloro-benzoic acid N′-(thiophene-2-carbonyl)-hydrazide] yielded an IC50 of 50 to 100 µM.

In turn, `Cc1cc(C(=O)NNc2nccc(C(F)(F)F)n2)n(C)n1` [Compound 26, 2,5-Dimethyl-2H-pyrazole-3-carboxylic acid N′-(4-trifluoromethyl-pyrimidin-2-yl)-hydrazide] returned a concentration for half-maximal inhibition (IC50) (Escherichia coli, 4 h) of 1 to 50 µM.

`CCCCCCC(=O)CC(=O)Nc1scc(C)c1C(=O)OCC` [Compound 123, 4-Methyl-2-(3-oxo-nonanoylamino)-thiophene-3-carboxylic acid ethyl ester] returned an IC50 (Escherichia coli, 4 h) above 100 µM. The same measure, in the same setting: as for `Cn1nc(-c2ccc(Cl)cc2)cc1NC(=O)c1cccs1` [Compound 14, Thiophene-2-carboxylic acid [5-(4-chloro-phenyl)-2-methyl-2H-pyrazol-3-yl]-amide], the figure is 1 to 50 µM; as for `CSc1ccc(NC(=O)NNC(=O)c2scc(C)c2Cl)cc1` [Compound 105, 1-(3-Chloro-4-methyl-thiophene-2-carbonyl)-4-(4-methylsulfanyl-phenyl)-semicarbazide], 1 to 50 µM. `Cc1csc(C(=O)NNC(=O)CCCCCBr)c1Cl` [Compound 80, 3-Chloro-4-methyl-thiophene-2-carboxylic acid N′-(6-bromo-hexanoyl)-hydrazide] showed an IC50 (Escherichia coli, 4 h) of 1 to 50 µM. Take `CCCC(=O)NNC(=O)c1ccc(C)s1` [Compound 76, 5-Methyl-thiophene-2-carboxylic acid N′-butyryl-hydrazide]: the IC50 (Escherichia coli, 4 h) lay in the range of 50 to 100 µM. Same read-out and setting: as for `CCCCCCC(=O)Nc1cc(-c2ccccc2)nn1C` [Compound 17, Heptanoic acid (2-methyl-5-phenyl-2H-pyrazol-3-yl)-amide], the figure is 1 to 50 µM; as for `COc1cscc1C(=O)NNC(=O)c1ccc(Cl)cc1` [Compound 30, 4-Chloro-benzoic acid N′-(4-methoxy-thiophene-3-carbonyl)-hydrazide], above 100 µM. On the same count and under the same terms, the result for `CCCCCCC(=O)CC(=O)Nc1cc(C)no1` [Compound 132, 3-Oxo-nonanoic acid (3-methyl-isoxazol-5-yl)-amide] reads above 100 µM. `CCCCCCCCCC(=O)CC(=O)Nc1sccc1C(=O)OC` [Compound 122, Z(3-Oxo-dodecanoylamino)-thiophene-3-carboxylic acid methyl ester]: the IC50 (read-out: IC50) was above 100 µM.

`CCn1nc(C)c(Br)c1C(=O)NNC(=O)c1ccc(Br)s1` [Compound 71, 4Bromo-2-ethyl-5-methyl-2H-pyrazole-3-carboxylic acid N′-(5-bromo-thiophene-2-carbonyl)-hydrazide] had an IC50 (Escherichia coli, 4 h) of 1 to 50 µM. The molecule `Cc1ccc(C(=O)NNC(=O)c2sccc2Br)s1` [Compound 57, 3-Bromo-thiophene-2-carboxylic acid N′-(5-methyl-thiophene-2-carbonyl)-hydrazide] returned an IC50 (Escherichia coli, 4 h) of 1 to 50 µM.

As for `O=C(NNC(=O)c1cc(Cl)sc1Cl)c1ccco1` [Compound 40, Furan-2-carboxylic acid N′-(2,5-dichloro-thiophene-3-carbonyl)-hydrazide], for the setting “Escherichia coli, 4 h”, the IC50 lay within 1 to 50 µM. As to `Cc1cc(C(=O)Nc2ccnn2C)n(C(C)(C)C)n1` [Compound 13, 2-tert-Butyl-5-methyl-2H-pyrazole-3-carboxylic acid (2-methyl-2H-pyrazol-3-yl)-amide], the IC50 (Escherichia coli, 4 h) was above 100 µM. As for `COc1ccc(NC(=O)c2cccnc2SC)cn1` [Compound 8, N-(6-Methoxy-pyridin-3-yl)-2-methylsulfanyl-nicotinamide], for the setting “Escherichia coli, 4 h”, the IC50 was above 100 µM. The same measure, in the same setting: the result for `Cn1nccc1NC(=O)CCCCCBr` [Compound 22, 6-Bromo-hexanoic acid (2-methyl-2H-pyrazole-3-yl)-amide] reads 1 to 50 µM; that for `CCOc1ccsc1C(=O)NNC(=O)c1sccc1Cl` [Compound 44, 3-Chloro-thiophene-2-carboxylic acid N′-(3-ethoxy-thiophene-2-carbonyl)-hydrazide], above 100 µM; that for `CCCCCCC(=O)CC(=O)Nc1cc(C)nn1C` [Compound 118, 3-Oxo-nonanoic acid (2,5-dimethyl-2H-pyrazol-3-yl)-amide], above 100 µM. The same measure, in the same setting: the result for `O=C(NNC(=O)c1sccc1Cl)c1ccc(Cl)s1` [Compound 58, 3-Chloro-thiophene-2-carboxylic acid N′-(5-chloro-thiophene-2-carbonyl)-hydrazide] reads 50 to 100 µM. In the case of `Cc1csc(C(=O)NNC(=O)c2ccco2)c1Cl` [Compound 36, Furan-2-carboxylic acid N′-(3-chloro-4-methyl-thiophene-2-carbonyl)-hydrazide], under “Escherichia coli, 4 h”, the half-maximal inhibitory concentration (IC50) fell in the range of 50 to 100 µM.

The molecule `O=C(NNC(=O)c1ccc(Cl)s1)c1cccs1` [Compound 52, Thiophene-2-carboxylic acid N′-(5-chloro-thiophene-2-carbonyl)-hydrazide] gave an IC50 (Escherichia coli, 4 h) of 50 to 100 µM. Consider `O=C(NNC(=O)c1sc2ccccc2c1Cl)c1ccc(Br)s1` [Compound 62, 3-Chloro-benzo[b]thiophene-2-carboxylic acid N′-(5-bromo-thiophene-2-carbonyl)-hydrazide], for which the IC50 (Escherichia coli, 4 h) fell in the range of 50 to 100 µM. The same measure, in the same setting: the result for `CCOc1ccsc1C(=O)NNC(=O)c1cccs1` [Compound 45, Thiophene-2-carboxylic acid N′-(3-ethoxy-thiophene-2-carbonyl)-hydrazide] reads 1 to 50 µM; that for `O=C(Nc1cccnc1)c1cc(Cl)sc1Cl` [Compound 3, 2,5-Dichloro-thio-phene-3-carboxylic acid pyridin-3-ylamide], 1 to 50 µM.

These data come from US20090076012A1, “Modulation of pathogenicity” (priority 2002, published 2009).
